Reference: patent US12209087B2, “AKT1 modulators” (Alterome Therapeutics, Inc., priority 2022, dated 2025)

Target: T1, full length AKT E17K (Homo sapiens, UniProt P31749, E17K)
T1 construct: host or cells: HEK-293 (ATCC CRL-1573)
Assay: NanoBRET Target Engagement (TE) Assay
Assay type: cell-based
Settings: competitive displacement of tracer in cells, read-out: AKT1 E17K IC50
How it was run: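 Compound and tracer incubated 2 h before luminescence at donor 450 nm and acceptor 600 nm, with extracellular signal inhibited. EC50 by sigmoidal variable-slope regression.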

T1 sequence (P31749 whole entry E17K): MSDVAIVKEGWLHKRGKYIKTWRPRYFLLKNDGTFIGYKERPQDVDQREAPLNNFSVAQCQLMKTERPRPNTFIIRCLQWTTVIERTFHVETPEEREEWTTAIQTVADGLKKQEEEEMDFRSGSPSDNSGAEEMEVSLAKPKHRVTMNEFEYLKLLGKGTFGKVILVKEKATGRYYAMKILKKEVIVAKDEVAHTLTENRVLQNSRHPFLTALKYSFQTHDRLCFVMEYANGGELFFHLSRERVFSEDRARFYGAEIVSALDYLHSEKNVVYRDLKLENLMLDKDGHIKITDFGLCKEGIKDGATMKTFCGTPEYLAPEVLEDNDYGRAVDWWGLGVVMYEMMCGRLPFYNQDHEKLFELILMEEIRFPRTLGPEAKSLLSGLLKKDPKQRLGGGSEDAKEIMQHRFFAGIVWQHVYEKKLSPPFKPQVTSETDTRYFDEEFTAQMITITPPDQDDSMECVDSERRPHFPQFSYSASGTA

| SMILES | IC50 [µM] |
| --- | --- |
| CC(C)(C)c1ccc2nc(-c3cccnc3N)n(-c3ccc(CN4CCC(Nc5ccnc(C#N)n5)CC4)cc3)c2n1 [Example 396, 4-((1-(4-(2-(2-Aminopyridin-3-yl)-5-(tert-butyl)-3H-imidazo[4,5-b]pyridin-3-yl)benzyl)piperidin-4-yl)amino)pyrimidine-2-carbonitrile] | 0.015 to 0.06 |
| CCc1ccc2nc(-c3cccnc3N)n(-c3ccc(CN4CCC(Nc5ccnc(C#N)n5)CC4)cc3)c2n1 [Example 397, 4-((1-(4-(2-(2-Aminopyridin-3-yl)-5-ethyl-3H-imidazo[4,5-b]pyridin-3-yl)benzyl)piperidin-4-yl)amino)pyrimidine-2-carbonitrile] | < 0.015 |
| CNC(=O)c1ccc2nc(-c3cccnc3N)n(-c3ccc(CN4CCC(Nc5ccnc(C#N)n5)CC4)cc3)c2n1 [Example 398, 2-(2-Aminopyridin-3-yl)-3-(4-((4-((2-cyanopyrimidin-4-yl)amino)piperidin-1-yl)methyl)phenyl)-N-methyl-3H-imidazo[4,5-h]pyridine-5-carboxamide] | < 0.015 |
| N#Cc1nccc(N2CCN(Cc3ccc(-n4c(-c5cccnc5N)nc5ccc(-c6ccncc6C#N)nc54)cc3)CC2)n1 [Example 399, 4-(4-(4-(2-(2-Aminopyridin-3-yl)-5-(3-cyanopyridin-4-yl)-3H-imidazo[4,5-b]pyridin-3-yl)benzyl)piperazin-1-yl)pyrimidine-2-carbonitrile] | 0.015 to 0.06 |
| N#Cc1nccc(NC2CCN(Cc3ccc(-n4c(-c5cccnc5N)nc5ccc(-c6ccncc6C#N)nc54)cc3)CC2)n1 [Example 400, 4-((1-(4-(2-(2-Aminopyridin-3-yl)-5-(3-cyanopyridin-4-yl)-3H-imidazo[4,5-b]pyridin-3-yl)benzyl)piperidin-4-yl)amino)pyrimidine-2-carbonitrile] | < 0.015 |
| N#Cc1nccc(NC2CCN(Cc3ccc(-n4c(-c5cccnc5N)nc5ccc(F)nc54)cc3)CC2)n1 [Example 401, 4-((1-(4-(2-(2-Aminopyridin-3-yl)-5-fluoro-3H-imidazo[4,5-b]pyridin-3-yl)benzyl)piperidin-4-yl)amino)pyrimidine-2-carbonitrile] | 0.015 to 0.06 |
| N#Cc1nccc(NC2CCN(Cc3ccc(-n4c(-c5cccnc5N)nc5cc(F)cnc54)cc3)CC2)n1 [Example 402, 4-((1-(4-(2-(2-Aminopyridin-3-yl)-6-fluoro-3H-imidazo[4,5-b]pyridin-3-yl)benzyl)piperidin-4-yl)amino)pyrimidine-2-carbonitrile] | < 0.015 |
| N#Cc1nccc(NC2CCN(Cc3ccc(-n4c(-c5cccnc5N)nc5ccc(N6CCOC6=O)nc54)cc3)CC2)n1 [Example 403, 4-((1-(4-(2-(2-Aminopyridin-3-yl)-5-(2-oxooxazolidin-3-yl)-3H-imidazo[4,5-b]pyridin-3-yl)benzyl)piperidin-4-yl)amino)pyrimidine-2-carbonitrile] | < 0.015 |
| N#Cc1nccc(NC2CCN(Cc3ccc(-n4c(-c5cccnc5N)nc5ccc(-c6ccc(F)nc6)nc54)cc3)CC2)n1 [Example 404, 4-((1-(4-(2-(2-Aminopyridin-3-yl)-5-(6-fluoropyridin-3-yl)-3H-imidazo[4,5-b]pyridin-3-yl)benzyl)piperidin-4-yl)amino)pyrimidine-2-carbonitrile] | < 0.015 |
| N#Cc1nccc(NC2CCN(Cc3ccc(-n4c(-c5cccnc5N)nc5ccc(Cl)nc54)cc3)CC2)n1 [Example 405, 4-((1-(4-(2-(2-Aminopyridin-3-yl)-5-chloro-3H-imidazo[4,5-b]pyridin-3-yl)benzyl)piperidin-4-yl)amino)pyrimidine-2-carbonitrile] | < 0.015 |
| N#Cc1ccc2nc(-c3cccnc3N)n(-c3ccc(CN4CCC(Nc5ccnc(C#N)n5)CC4)cc3)c2n1 [Example 406, 2-(2-Aminopyridin-3-yl)-3-(4-((4-((2-cyanopyrimidin-4-yl)amino)piperidin-1-yl)methyl)phenyl)-3H-imidazo[4,5-b]pyridine-5-carbonitrile] | < 0.015 |
| N#Cc1nccc(N2CCN(Cc3ccc(-n4c(-c5cccnc5N)nc5ccc(-c6ncccc6C#N)nc54)cc3)CC2)n1 [Example 407, 4-(4-(4-(2-(2-Aminopyridin-3-yl)-5-(3-cyanopyridin-2-yl)-3H-imidazo[4,5-b]pyridin-3-yl)benzyl)piperazin-1-yl)pyrimidine-2-carbonitrile] | < 0.015 |
| N#Cc1nccc(NC2CCN(Cc3ccc(-n4c(-c5cccnc5N)nc5ccc(-c6ncccc6C#N)nc54)cc3)CC2)n1 [Example 408, 4-((1-(4-(2-(2-Aminopyridin-3-yl)-5-(3-cyanopyridin-2-yl)-3H-imidazo[4,5-b]pyridin-3-yl)benzyl)piperidin-4-yl)amino)pyrimidine-2-carbonitrile] | < 0.015 |
| N#Cc1nccc(NC2CCN(Cc3ccc(-n4c(-c5cccnc5N)nc5ccc(-c6cccnc6C#N)nc54)cc3)CC2)n1 [Example 409, 4-((1-(4-(2-(2-Aminopyridin-3-yl)-5-(2-cyanopyridin-3-yl)-3H-imidazo[4,5-b]pyridin-3-yl)benzyl)piperidin-4-yl)amino)pyrimidine-2-carbonitrile] | < 0.015 |
| N#Cc1nccc(NC2CCN(Cc3ccc(-n4c(-c5cccnc5N)nc5ccc(C(F)(F)F)nc54)cc3)CC2)n1 [Example 410, 4-((1-(4-(2-(2-Aminopyridin-3-yl)-5-(trifluoromethyl)-3H-imidazo[4,5-b]pyridin-3-yl)benzyl)piperidin-4-yl)amino)pyrimidine-2-carbonitrile] | < 0.015 |
| N#Cc1cnc2c(c1)nc(-c1cccnc1N)n2-c1ccc(CN2CCC(Nc3ccnc(C#N)n3)CC2)cc1 [Example 411, 2-(2-Aminopyridin-3-yl)-3-(4-((4-((2-cyanopyrimidin-4-yl)amino)piperidin-1-yl)methyl)phenyl)-3H-imidazo[4,5-b]pyridine-6-carbonitrile] | 0.015 to 0.06 |
| Cc1cc2nc(-c3cccnc3N)n(-c3ccc(CN4CCC(Nc5ccnc(C#N)n5)CC4)cc3)c2nc1C [Example 412, 4-((1-(4-(2-(2-Aminopyridin-3-yl)-5,6-dimethyl-3H-imidazo[4,5-b]pyridin-3-yl)benzyl)piperidin-4-yl)amino)pyrimidine-2-carbonitrile] | < 0.015 |
| N#Cc1nccc(NC2CCN(Cc3ccc(-n4c(-c5cccnc5N)nc5nccnc54)cc3)CC2)n1 [Example 413, 4-((1-(4-(2-(2-aminopyridin-3-yl)-1H-imidazo[4,5-b]pyrazin-1-yl)benzyl)piperidin-4-yl)amino)pyrimidine-2-carbonitrile] | 0.015 to 0.06 |
| COC(=O)c1ccc2nc(-c3cccnc3N)n(-c3ccc(CN4CCC(Nc5ccnc(C#N)n5)CC4)cc3)c2n1 [Example 414, Methyl 2-(2-aminopyridin-3-yl)-3-(4-((4-((2-cyanopyrimidin-4-yl)amino)piperidin-1-yl)methyl)phenyl)-3H-imidazo[4,5-b]pyridine-5-carboxylate] | < 0.015 |
| N#Cc1nccc(NC2CCN(Cc3ccc(-n4c(-c5cccnc5N)nc5ccc(C(=O)O)nc54)cc3)CC2)n1 [Example 415, 2-(2-Aminopyridin-3-yl)-3-(4-((4-((2-cyanopyrimidin-4-yl)amino)piperidin-1-yl)methyl)phenyl)-3H-imidazo[4,5-b]pyridine-5-carboxylic acid] | 0.6 to 10 |
| N#Cc1nccc(NC2CCN(Cc3ccc(-n4c(-c5cccnc5N)nc5ccc(OCF)nc54)cc3)CC2)n1 [Example 416, 4-((1-(4-(2-(2-Aminopyridin-3-yl)-5-(fluoromethoxy)-3H-imidazo[4,5-b]pyridin-3-yl)benzyl)piperidin-4-yl)amino)pyrimidine-2-carbonitrile] | < 0.015 |
| N#Cc1nccc(NC2CCN(Cc3ccc(-n4c(-c5cccnc5N)nc5ccc(C6CCOC6)nc54)cc3)CC2)n1 (stereo not shown) [Example 417, 4-((1-(4-(2-(2-Aminopyridin-3-yl)-5-(tetrahydrofuran-3-yl)-3H-imidazo[4,5-b]pyridin-3-yl)benzyl)piperidin-4-yl)amino)pyrimidine-2-carbonitrile] | < 0.015 |
| N#Cc1ccc(-c2ccc3nc(-c4cccnc4N)n(-c4ccc(CN5CCC(Nc6ccnc(C#N)n6)CC5)cc4)c3n2)nc1 [Example 418, 4-((1-(4-(2-(2-Aminopyridin-3-yl)-5-(5-cyanopyridin-2-yl)-3H-imidazo[4,5-b]pyridin-3-yl)benzyl)piperidin-4-yl)amino)pyrimidine-2-carbonitrile] | 0.015 to 0.06 |
| N#Cc1ccc(-c2ccc3nc(-c4cccnc4N)n(-c4ccc(CN5CCC(Nc6ccnc(C#N)n6)CC5)cc4)c3n2)cn1 [Example 419, 4-((1-(4-(2-(2-Aminopyridin-3-yl)-5-(6-cyanopyridin-3-yl)-3H-imidazo[4,5-b]pyridin-3-yl)benzyl)piperidin-4-yl)amino)pyrimidine-2-carbonitrile] | < 0.015 |
| N#Cc1nccc(NC2CCN(Cc3ccc(-n4c(-c5cccnc5N)nc5ccc(C6COC6)nc54)cc3)CC2)n1 [Example 420, 4-((1-(4-(2-(2-Aminopyridin-3-yl)-5-(oxetan-3-yl)-3H-imidazo[4,5-h]pyridin-3-yl)benzyl)piperidin-4-yl)amino)pyrimidine-2-carbonitrile] | < 0.015 |
| COc1ccc(-c2ccc3nc(-c4cccnc4N)n(-c4ccc(CN5CCC(Nc6ccnc(C#N)n6)CC5)cc4)c3n2)cc1 [Example 421, 4-((1-(4-(2-(2-Aminopyridin-3-yl)-5-(4-methoxyphenyl)-3H-imidazo[4,5-b]pyridin-3-yl)benzyl)piperidin-4-yl)amino)pyrimidine-2-carbonitrile] | < 0.015 |
| COc1ccccc1-c1ccc2nc(-c3cccnc3N)n(-c3ccc(CN4CCC(Nc5ccnc(C#N)n5)CC4)cc3)c2n1 [Example 422, 4-((1-(4-(2-(2-Aminopyridin-3-yl)-5-(2-methoxyphenyl)-3H-imidazo[4,5-b]pyridin-3-yl)benzyl)piperidin-4-yl)amino)pyrimidine-2-carbonitrile] | < 0.015 |
| N#Cc1nccc(NC2CCN(Cc3ccc(-n4c(-c5cccnc5N)nc5ccc(OC(F)(F)F)nc54)cc3)CC2)n1 [Example 423, 4-((1-(4-(2-(2-Aminopyridin-3-yl)-5-(trifluoromethoxy)-3H-imidazo[4,5-b]pyridin-3-yl)benzyl)piperidin-4-yl)amino)pyrimidine-2-carbonitrile] | 0.06 to 0.6 |
